29 molecules from patent publication US9000186B2, “Ring-fused heterocyclic derivative” (Kyowa Hakko Kirin Co., Ltd., priority 2011, dated 2015) can be followed below.

pIC50: −log10 of the molar value.

The term pIC50 denotes −log10 of the IC50, conventionally taken in molar units.

For the first experiment, the target named is T1, human Cav3.2 T-type Ca2+ channel (Homo sapiens, UniProt O95180).
T1 construct: expressed in transfected cells; host or cells: KJMGER8 cells (Namalwa cell-derived cell line)
T1 sequence (O95180 whole entry): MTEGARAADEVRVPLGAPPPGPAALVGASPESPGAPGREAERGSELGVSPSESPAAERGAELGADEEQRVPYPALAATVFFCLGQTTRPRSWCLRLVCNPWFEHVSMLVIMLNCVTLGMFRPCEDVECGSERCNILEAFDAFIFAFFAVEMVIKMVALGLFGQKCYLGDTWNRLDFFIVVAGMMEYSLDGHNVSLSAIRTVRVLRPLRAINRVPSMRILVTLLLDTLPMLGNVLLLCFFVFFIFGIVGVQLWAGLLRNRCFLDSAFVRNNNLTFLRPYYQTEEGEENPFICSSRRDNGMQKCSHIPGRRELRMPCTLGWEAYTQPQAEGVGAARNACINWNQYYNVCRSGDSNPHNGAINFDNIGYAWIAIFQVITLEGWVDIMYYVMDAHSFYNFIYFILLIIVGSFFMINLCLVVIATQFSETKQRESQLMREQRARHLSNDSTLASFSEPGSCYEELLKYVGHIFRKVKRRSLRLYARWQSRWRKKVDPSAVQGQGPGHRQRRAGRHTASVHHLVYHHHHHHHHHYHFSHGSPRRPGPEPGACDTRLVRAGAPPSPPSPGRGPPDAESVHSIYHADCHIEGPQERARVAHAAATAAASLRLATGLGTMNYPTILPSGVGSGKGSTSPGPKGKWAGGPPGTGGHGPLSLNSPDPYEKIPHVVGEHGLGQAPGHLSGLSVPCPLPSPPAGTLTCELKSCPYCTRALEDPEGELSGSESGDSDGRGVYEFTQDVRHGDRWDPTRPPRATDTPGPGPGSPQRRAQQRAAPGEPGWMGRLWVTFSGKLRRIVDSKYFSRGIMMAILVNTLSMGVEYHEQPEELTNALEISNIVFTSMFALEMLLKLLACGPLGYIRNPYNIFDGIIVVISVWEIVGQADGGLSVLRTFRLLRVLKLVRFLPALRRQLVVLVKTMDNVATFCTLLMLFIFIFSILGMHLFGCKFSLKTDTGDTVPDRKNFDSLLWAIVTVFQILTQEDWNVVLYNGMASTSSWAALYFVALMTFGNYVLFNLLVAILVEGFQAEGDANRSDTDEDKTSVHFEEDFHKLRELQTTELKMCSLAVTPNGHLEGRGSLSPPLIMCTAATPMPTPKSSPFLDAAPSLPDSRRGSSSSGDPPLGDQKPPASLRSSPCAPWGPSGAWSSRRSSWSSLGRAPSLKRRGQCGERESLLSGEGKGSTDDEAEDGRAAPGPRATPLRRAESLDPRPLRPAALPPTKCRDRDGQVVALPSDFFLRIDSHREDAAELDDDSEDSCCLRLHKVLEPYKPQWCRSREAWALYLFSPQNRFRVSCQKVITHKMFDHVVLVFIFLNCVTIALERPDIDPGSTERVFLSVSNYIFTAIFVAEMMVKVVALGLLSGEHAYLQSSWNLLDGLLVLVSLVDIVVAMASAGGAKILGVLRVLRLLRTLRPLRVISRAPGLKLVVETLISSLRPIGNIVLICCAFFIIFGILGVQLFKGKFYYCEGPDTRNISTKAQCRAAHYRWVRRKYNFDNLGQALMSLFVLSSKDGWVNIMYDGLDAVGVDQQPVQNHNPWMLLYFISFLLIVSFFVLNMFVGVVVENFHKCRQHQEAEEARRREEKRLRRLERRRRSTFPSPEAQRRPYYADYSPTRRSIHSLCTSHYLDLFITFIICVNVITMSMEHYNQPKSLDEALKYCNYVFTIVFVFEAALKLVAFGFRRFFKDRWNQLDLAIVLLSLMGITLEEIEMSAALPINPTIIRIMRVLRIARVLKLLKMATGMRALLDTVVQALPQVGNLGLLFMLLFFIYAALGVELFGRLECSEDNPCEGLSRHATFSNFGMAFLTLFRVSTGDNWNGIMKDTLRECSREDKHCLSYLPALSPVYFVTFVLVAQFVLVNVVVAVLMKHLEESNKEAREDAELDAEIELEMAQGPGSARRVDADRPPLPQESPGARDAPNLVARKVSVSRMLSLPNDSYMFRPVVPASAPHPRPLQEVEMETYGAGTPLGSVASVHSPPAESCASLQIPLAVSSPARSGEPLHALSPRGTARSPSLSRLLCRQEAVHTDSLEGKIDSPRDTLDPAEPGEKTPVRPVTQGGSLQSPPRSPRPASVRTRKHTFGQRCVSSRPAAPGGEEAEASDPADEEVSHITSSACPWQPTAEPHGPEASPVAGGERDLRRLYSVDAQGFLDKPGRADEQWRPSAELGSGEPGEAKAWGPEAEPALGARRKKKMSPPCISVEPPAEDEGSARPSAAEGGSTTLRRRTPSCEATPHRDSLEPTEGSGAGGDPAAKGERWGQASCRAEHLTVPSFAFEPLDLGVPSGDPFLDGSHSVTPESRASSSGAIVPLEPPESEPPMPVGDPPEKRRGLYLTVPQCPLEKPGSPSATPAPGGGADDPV
Kind of experiment: Inhibitory effect for intracellular calcium response via Cav3.2 T-type Ca2+ channels (FLIPR Calcium 3 Assay Kit). It counts as cell-based.
Settings: not given
(In general: Calcium flux is commonly read through the fluorescence of an indicator in the cells.)
For the molecule `CC1CCCN(C(=O)c2ccn3c(CC4CCCCC4)c(C(C)(C)C)nc3c2)C1` (stereo not drawn) [Compound 14, (2-tert-Butyl-3-cyclohexylmethylimidazo[1,2-a]pyridin-7-yl)(3-methylpiperidin-1-yl)methanone], the pIC50 was > 7.00.
Take `CN(C(C)(C)C)S(=O)(=O)c1c(C(F)(F)F)nc2cc(C(=O)Nc3ccccc3)ccn12` [Compound 147, 3-(N-tert-Butyl-N-methylsulfamoyl)-N-phenyl-2-trifluoromethylimidazo[1,2-a]pyridine-7-carboxamide]: the pIC50 is > 7.00.
`CC(C)c1nc2cc(C(=O)NC3CC(F)(F)C3)c(Cl)cn2c1S(=O)(=O)N1CC(F)(F)C1` [Compound 151, 6-Chloro-3-(3,3-difluoroazetidin-1-ylsulfonyl)-N-(3,3-difluorocyclobutyl)-2-isopropylimidazo[1,2-a]pyridine-7-carboxamide]: the pIC50 was > 7.00.
For the molecule `CC(C)c1nc2cc(C(=O)NC3CCOC(C)(C)C3)c(Cl)cn2c1S(=O)(=O)N1CC(F)(F)C1` (stereo not drawn) [Compound 153, 6-Chloro-3-(3,3-difluoroazetidin-1-ylsulfonyl)-N-(2,2-dimethyltetrahydro-2H-pyran-4-yl)-2-isopropylimidazo[1,2-a]pyridine-7-carboxamide], the negative-log IC50 (pIC50) is > 7.00.
Take `CC(C)(C)NS(=O)(=O)c1c(C(C)(C)C)nc2cc(C(=O)NC3CCOCC3)c(Cl)cn12` [Compound 162, 2-tert-Butyl-3-(N-tert-butylsulfamoyl)-6-chloro-N-(tetrahydro-2H-pyran-4-yl)imidazo[1,2-a]pyridine-7-carboxamide]: the pIC50 is > 7.00.
Regarding `Cc1cn2c(S(=O)(=O)NC(C)(C)C)c(C(C)C)nc2cc1C(=O)Nc1ccccc1` [Compound 168, 3-(N-tert-Butylsulfamoyl)-2-isopropyl-6-methyl-N-phenylimidazo[1,2-a]pyridine-7-carboxamide], the negative-log IC50 (pIC50) is > 7.00.
For the molecule `O=C(NC1CC=CCC1)c1ccn2c(CC3CCC(F)(F)CC3)c(C(F)(F)F)nc2c1` (stereo not drawn) [Compound 180, N-(Cyclohex-3-enyl)-3-(4,4-difluorocyclohexylmethyl)-2-trifluoromethylimidazo[1,2-a]pyridine-7-carboxamide], the negative-log IC50 (pIC50) is > 7.00.

The experiment is the same for the next values; noted with them: human Cav3.2-expressing KJMGER8 cells (Namalwa-derived); calcium response induced by 5 mmol/L CaCl2; normalised to 3 μmol/L mibefradil; read-out: IC50 for the human Cav3.2 T-type Ca2+ current.
With `CC(C)c1nc2cc(C(=O)Nc3ccccc3N)c(Cl)cn2c1S(=O)(=O)N1CC(F)(F)C1` [Compound 149, N-(2-Aminophenyl)-6-chloro-3-(3,3-difluoroazetidin-1-ylsulfonyl)-2-isopropylimidazo[1,2-a]pyridine-7-carboxamide], the pIC50 is > 7.00.
Same read-out and setting: the value for `CC(C)c1nc2cc(C(=O)NCC3CC3)c(Cl)cn2c1S(=O)(=O)N1CC(F)(F)C1` [Compound 150, 6-Chloro-N-cyclopropylmethyl-3-(3,3-difluoroazetidin-1-ylsulfonyl)-2-isopropylimidazo[1,2-a]pyridine-7-carboxamide] was > 7.00; that for `CC(C)c1nc2cc(C(=O)NOCc3ccccc3)c(Cl)cn2c1S(=O)(=O)N1CC(F)(F)C1` [Compound 152, N-Benzyloxy-6-chloro-3-(3,3-difluoroazetidin-1-ylsulfonyl)-2-isopropylimidazo[1,2-a]pyridine-7-carboxamide] was > 7.00.
The same measure, in the same setting: the value for `CC(C)c1nc2cc(C(=O)Nc3ccccc3)c(Cl)cn2c1S(=O)(=O)NC1CC(F)(F)C1` [Compound 154, 6-Chloro-3-{N-(3,3-difluorocyclobutyl)sulfamoyl}-2-isopropyl-N-phenylimidazo[1,2-a]pyridine-7-carboxamide] was > 7.00; that for `CC(C)c1nc2cc(C(=O)Nc3ccccc3)c(Cl)cn2c1S(=O)(=O)Nc1ccccc1` [Compound 155, 6-Chloro-2-isopropyl-N-phenyl-3-(N-phenylsulfamoyl)imidazo[1,2-a]pyridine-7-carboxamide] was > 7.00; that for `CC(C)c1nc2cc(C(=O)Nc3ccccc3)c(Cl)cn2c1S(=O)(=O)NC(C)(C)C` [Compound 156, 3-(N-tert-Butylsulfamoyl)-6-chloro-2-isopropyl-N-phenylimidazo[1,2-a]pyridine-7-carboxamide] was > 7.00.
As for `Cc1cc(NC(=O)c2cc3nc(C(C)C)c(S(=O)(=O)NC(C)(C)C)n3cc2Cl)on1` [Compound 157, 3-(N-tert-Butylsulfamoyl)-6-chloro-2-isopropyl-N-(3-methylisooxazol-5-yl)imidazo[1,2-a]pyridine-7-carboxamide], the pIC50 is > 7.00.
Consider `CC(C)c1nc2cc(C(=O)NC3CC(F)(F)C3)c(Cl)cn2c1S(=O)(=O)NC(C)(C)C` [Compound 158, 3-(N-tert-Butylsulfamoyl)-6-chloro-N-(3,3-difluorocyclobutyl)-2-isopropylimidazo[1,2-a]pyridine-7-carboxamide], for which the pIC50 was > 7.00.
For `CC(C)c1nc2cc(C(=O)NOCc3ccccc3)c(Cl)cn2c1S(=O)(=O)NC(C)(C)C` [Compound 159, N-Benzyloxy-3-(N-tert-butylsulfamoyl)-6-chloro-2-isopropylimidazo[1,2-a]pyridine-7-carboxamide], the pIC50 was > 7.00.
Consider `Cc1cn2c(S(=O)(=O)C3CCCCC3)c(C(C)C)nc2cc1C(=O)Nc1ccccc1` [Compound 163, 3-(Cyclohexylsulfonyl)-2-isopropyl-6-methyl-N-phenyl-imidazo[1,2-a]pyridine-7-carboxamide], for which the pIC50 is > 7.00.
For `Cc1cn2c(S(=O)(=O)N3CCC(F)(F)CC3)c(C(C)C)nc2cc1C(=O)Nc1ccncc1` [Compound 165, 3-(4,4-Difluoropiperidin-1-ylsulfonyl)-2-isopropyl-6-methyl-N-(pyridin-4-yl)imidazo[1,2-a]pyridine-7-carboxamide], the negative logarithm of the IC50 (pIC50) is > 7.00.
On the same count and under the same terms, the value for `Cc1cn2c(S(=O)(=O)N3CC4(COC4)C3)c(C(C)C)nc2cc1C(=O)Nc1ccccc1` [Compound 166, 3-(2-Oxa-6-azaspiro[3.3]heptan-6-ylsulfonyl)-2-isopropyl-6-methyl-N-phenylimidazo[1,2-a]pyridine-7-carboxamide] was > 7.00.
Regarding `CC(C)c1nc2cc(-c3nc4ccccc4[nH]3)c(Cl)cn2c1S(=O)(=O)N1CC(F)(F)C1` [Compound 170, 2-{6-Chloro-3-(3,3-difluoroazetidin-1-ylsulfonyl)-2-isopropylimidazo[1,2-a]pyridin-7-yl}-1H-benzimidazole], the pIC50 is > 7.00.
On to `CC(C)c1nc2nc(C(=O)Nc3ccccc3)ccn2c1S(=O)(=O)N1CCC(F)(F)CC1` [Compound 171, 3-(4,4-Difluoropiperidin-1-ylsulfonyl)-2-isopropyl-N-phenylimidazo[1,2-a]pyrimidine-7-carboxamide], for which the pIC50 is > 7.00.
For `CC(C)c1nc2nc(C(=O)NC3CCCCC3)ccn2c1S(=O)(=O)N1CCC(F)(F)CC1` [Compound 172, N-Cyclohexyl-3-(4,4-difluoropiperidin-1-ylsulfonyl)-2-isopropylimidazo[1,2-a]pyrimidine-7-carboxamide], the pIC50 was > 7.00.
`CC(C)c1nc2cc(NC(=O)C3CCCCC3)ncn2c1S(=O)(=O)N1CCC(F)(F)CC1` [Compound 175, N-{3-(4,4-Difluoropiperidin-1-ylsulfonyl)-2-isopropylimidazo[1,2-c]pyrimidin-7-yl}cyclohexanecarboxamide]: the pIC50 is > 7.00.
Consider `C#CC(C)(C)NS(=O)(=O)c1c(C(C)C)nc2cc(C(=O)Nc3ccccc3)c(Cl)cn12` [Compound 179, 6-Chloro-2-isopropyl-3-{N-(2-methylbut-3-yne-2-yl)sulfamoyl}-N-phenylimidazo[1,2-a]pyridine-7-carboxamide], for which the pIC50 is > 7.00.
The same measure, in the same setting: next, `O=C(NOC1CCOCC1)c1cc2nc(C(F)(F)F)c(CC3CCC(F)(F)CC3)n2cc1Cl` [Compound 181, 6-Chloro-3-(4,4-difluorocyclohexylmethyl)-N-(tetrahydro-2H-pyran-4-yloxy)-2-trifluoromethylimidazo[1,2-a]pyridine-7-carboxamide]: > 7.00.

A further experiment concerns morphine-induced pruritus mice. Kind of experiment: Inhibitory effect for pruritus in morphine-induced pruritus mice. The class given is in vivo, male ddY mice. As to conditions: oral, dose of 30 mg/kg or less, 30 minutes before intrathecal morphine (1 nmol/5 μL); scratching counted for 30 minutes. On the procedure:
Morphine (1 nmol/5 μL, dissolved in physiological saline) or physiological saline was intrathecally administered between the fifth and sixth lumbar vertebrae of male ddY mice using a microsyringe fitted with a 30-gauge injection needle. Mice administered with only morphine were used as a control group, and mice administered with only physiological saline as a physiological saline-administered group.
After the morphine administration, the number of scratching behavior with the hind legs which observed immediately in the mice was measured for 30 minutes. Because mice show a rapid, continuous scratching behavior in each scratching behavior, a series of such behavior was counted as a single scratching behavior.
The test compounds were administered 30 minutes before the morphine administration. Each test compound was suspended in a 0.5% methylcellulose solution, and orally administered in 10 mL/kg volume.
As to `CC1CCCN(C(=O)c2ccn3c(CC4CCCCC4)c(C(C)(C)C)nc3c2)C1` (stereo not drawn) [Compound 14, (2-tert-Butyl-3-cyclohexylmethylimidazo[1,2-a]pyridin-7-yl)(3-methylpiperidin-1-yl)methanone], the “increase of the scratching behavior observed in the morphine-induced pruritus mice” value (“increase” below) is on record as “inhibited”.
Take `O=C(Nc1ccncc1)c1ccn2c(CC3CCC(F)(F)CC3)c(C(F)(F)F)nc2c1` [Compound 36, 3-(4,4-Difluorocyclohexylmethyl)-N-(pyridin-4-yl)-2-trifluoromethylimidazo[1,2-a]pyridine-7-carboxamide]: the “increase” value is on record as “inhibited”.
Consider `Cc1cc(C(=O)NC2CCOCC2)cc2nc(C(F)(F)F)c(CC3CCC(F)(F)CC3)n12` [Compound 44, 3-(4,4-Difluorocyclohexylmethyl)-5-methyl-N-(tetrahydro-2H-pyran-4-yl)-2-trifluoromethylimidazo[1,2-a]pyridine-7-carboxamide], for which the “increase” value is recorded as “inhibited”.
The same measure, in the same setting: next, `CC1(C)CC(NC(=O)c2ccn3c(CC4CCC(F)(F)CC4)c(C(F)(F)F)nc3c2)CCO1` (stereo not drawn) [Compound 54, 3-(4,4-Difluorocyclohexylmethyl)-N-(2,2-dimethyltetrahydro-2H-pyran-4-yl)-2-trifluoromethylimidazo[1,2-a]pyridine-7-carboxamide]: “inhibited”; `Cc1cn2c(CC3CCC(F)(F)CC3)c(C(F)(F)F)nc2cc1C(=O)NC1CCOCC1` [Compound 118, 3-(4,4-Difluorocyclohexylmethyl)-6-methyl-N-(tetrahydro-2H-pyran-4-yl)-2-trifluoromethylimidazo[1,2-a]pyridine-7-carboxamide]: “inhibited”.
